Counter-ions that a name gives are not always drawn. Like-named read-outs stand apart in the source and are kept apart here.
Experiments:
[1] = biological target: T1, κ opioid receptor (Homo sapiens, UniProt P41145); assay: Competition binding assay on membranes of CHO cells expressing κ opioid receptor, [3H]-labeled ligand; conditions: for inhibition at 1 µM / inhibition at 10 µM: 0.5 h; for inhibition at 10 µM: Table 1-1, 10 μM concentration of compound
T1 construct: expressed in transfected cells; host or cells: CHO cells (membranes)
Outline: (§1)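 CHO membranes (20–30 μg protein) incubated with [3H]-labeled ligand at 1–2 nM and test compounds, 30 min at 30° C; nonspecific binding with 1 μM corresponding ligand. Filtered on GF/C, washed with 50 mM Tris-HCl pH 7.4, scintillation-counted. IC50 converted to Ki by Ki=IC50/(1+[L]/Kd).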

[2] = system: Female mice; assay: In vivo hot plate method analgesia test; conditions: intraperitoneal; for % MPE (5 mg/kg): Table 2-2, hot plate 55° C.; for ED50: Mus musculus, ip, Table 2-2, hot plate; for Maximum percentage effective analgesic (% MPE): Table 1-2, hot plate 55° C.; for % MPE (5 mg/kg) / Maximum percentage effective analgesic (% MPE): 5 mg/kg dose; for Maximum percentage effective analgesia (% MPE): Table 5-2, hot plate 55° C.; for Maximum percentage effective analgesia (% MPE) / % MPE @ 10 mg/kg: 10 mg/kg dose; for % MPE @ 10 mg/kg: Table 3-2, hot plate 55° C.
Outline: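 Female mice (~20 g) on a 55° C hot plate, hindpaw response latency as pain threshold (pre-screen 5–30 s, 60 s cut-off). Latencies at 15, 30, 60 and 120 min after intraperitoneal dosing. %MPE = (post−pre latency)/(60−pre)×100, ED50 derived from %MPE.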

[3] = biological target: T2, δ opioid receptor (Homo sapiens, UniProt P41143); assay: Competition binding assay on membranes of CHO cells expressing δ opioid receptor, [3H]-labeled ligand; conditions: for inhibition at 1 µM / inhibition at 10 µM: 0.5 h; for inhibition at 10 µM: Table 1-1, 10 μM concentration of compound
T2 construct: expressed in transfected cells; host or cells: CHO cells (membranes)
Outline: as §1

[4] = biological target: T3, μ opioid receptor (Homo sapiens, UniProt P35372); assay: Competition binding assay on membranes of CHO cells expressing μ opioid receptor, [3H]-labeled ligand; conditions: for Ki: read-out: μOR Ki; for inhibition at 10 µM: Table 1-1, 10 μM concentration of compound, mean ± SD of three measurements
T3 construct: expressed in transfected cells; host or cells: CHO cells (membranes)
Outline: as §1

[5] = Table 2-1, 1 μM concentration of compound, read-out: κOR Binding rate (%)
[6] = Table 2-1, 1 μM concentration of compound, read-out: δOR Binding rate (%)
[7] = Table 2-1, 1 μM concentration of compound, read-out: μOR Binding rate (%)
[8] = Table 5-1, 1 μM concentration of compound, read-out: κOR Combination rate (%)
[9] = Table 5-1, 1 μM concentration of compound, read-out: δOR Combination rate (%)
[10] = 0.5 h, Table 5-1, 1 μM concentration of compound, read-out: μOR Combination rate (%)
[11] = Table 3-1, 1 μM concentration of compounds, read-out: κOR Binding rate (%)
[12] = Table 3-1, 1 μM concentration of compounds, read-out: δOR Binding rate (%)
[13] = Table 3-1, 1 μM concentration of compounds, read-out: μOR Binding rate (%)

`COc1cccc(C2(O)CCN(S(=O)(=O)Cc3ccccc3F)CC2CN(C)C)c1.Cl` (stereo not drawn) [FWBH14, 3-((Dimethylamino)methyl)-1-((2-fluorobenzyl)sulfonyl)-4-(3-methoxyphenyl)piperidin-4-ol hydrochloride] was tested, and the inhibition at 1 µM [1, 5] was 17.6 ± 6.34%, the “% MPE (5 mg/kg)” value [2] was 81.20% and the inhibition at 1 µM [3, 6] was 40.8 ± 2.66%. It also gave a Ki ([4]; Table 2-1) of 29.6 ± 2.53 nM.
`COc1cccc(C2(O)CCN(S(=O)(=O)Cc3ccccc3)CC2CN(C)C)c1.Cl` (stereo not drawn) [FWBH6, 1-(Benzylsulfonyl)-3-((dimethylamino)methyl)-4-(3-methoxyphenyl)piperidin-4-ol hydrochloride] showed a Ki [1] of over 10000 nM, an ED50 [2] of 1.1 mg/kg and a Ki [3] of over 10000 nM. The inhibition at 1 µM [4, 7] was 0%.
With `COc1cccc(C2(O)CCC(NS(=O)(=O)c3cccs3)CC2CN(C)C)c1.Cl` (stereo not drawn) [N-(3-((Dimethylamino)methyl)-4-hydroxy-4-(3-methoxyphenyl)cyclohexyl)thiophene-2-sulfonamide hydrochloride] the inhibition at 10 µM ([1]; read-out: κOR Binding rate (%)) was 37 ± 6.8%, the “Maximum percentage effective analgesic (% MPE)” value [2] was 19.5% and the inhibition at 10 µM ([3]; read-out: δOR Binding rate (%)) was 0%. The inhibition at 10 µM ([4]; read-out: μOR Binding rate (%)) was 57 ± 4.8%.
`COc1cccc(C2(O)CCN(S(=O)(=O)Cc3cccc([N+](=O)[O-])c3)CC2CN(C)C)c1.Cl` (stereo not drawn) [FWBH22, 3-((Dimethylamino)methyl)-4-(3-methoxyphenyl)-1-((3-nitrobenzyl)sulfonyl)piperidin-4-ol hydrochloride] was tested, and the inhibition at 1 µM [1, 5] was 32.7 ± 3.1%, the “% MPE (5 mg/kg)” value [2] was 41.43% and the inhibition at 1 µM [3, 6] was 10.2 ± 3.19%. It also gave a Ki ([4]; Table 2-1) of 212 ± 9 nM.
In the case of `COc1cccc(C2(O)CCN(C(=O)Cc3ccc(Cl)cc3)CC2CN(C)C)c1.Cl` (stereo not drawn) [FWBE19, 2-(4-Chlorophenyl)-1-(3-((dimethylamino)methyl)-4-hydroxy-4-(3-methoxyphenyl)piperidin-1-yl)ethyl-1-one hydrochloride], the inhibition at 1 µM [1, 8] is reported as 39.4 ± 4.5%, the “Maximum percentage effective analgesia (% MPE)” value [2] is reported as 73.98% and the inhibition at 1 µM [3, 9] is reported as 0%. For the same molecule, the inhibition at 1 µM [4, 10] was 25.2 ± 5.2%.
`COC(=O)c1sccc1NC(=O)N1CCC(O)(c2cccc(OC)c2)C(CN(C)C)C1` (stereo not drawn) [FWBF17, Methyl 3-(3-((dimethylamino)methyl)-4-hydroxy-4-(3-methoxyphenyl)piperidine-1-carboxamide) thiophene-2-carboxylate hydrochloride] was tested, and the inhibition at 1 µM [1, 11] was 0%, the “% MPE @ 10 mg/kg” value [2] was 19.34% and the inhibition at 1 µM [3, 12] was 0%. The inhibition at 1 µM [4, 13] was 10.2 ± 9%.
With `COc1cccc(C2(O)CCC(N(Cc3ccccc3)S(=O)(=O)c3cccs3)CC2CN(C)C)c1.Cl` (stereo not drawn) [N-Benzyl-N-(3-((dimethylamino)methyl)-4-hydroxy-4-(3-methoxyphenyl)cyclohexyl)thiophene-2-sulfonamide hydrochloride] the inhibition at 10 µM ([1]; read-out: κOR Binding rate (%)) was 71.2 ± 2.7%, the “Maximum percentage effective analgesic (% MPE)” value [2] was 22.8% and the inhibition at 10 µM ([3]; read-out: δOR Binding rate (%)) was 0%. For the same molecule, the inhibition at 10 µM ([4]; read-out: μOR Binding rate (%)) was 68.4 ± 3.4%.
With `COc1cccc(C2(O)CCN(C(=O)Cc3ccccc3)CC2CN(C)C)c1.Cl` (stereo not drawn) [FWBE3, 1-(3-((Dimethylamino)methyl)-4-hydroxy-4-(3-methoxyphenyl)piperidin-1-yl)-2-phenylethyl-1-one hydrochloride] the inhibition at 1 µM ([1]; read-out: κOR Combination rate (%)) was 23.4 ± 5.7%, the “Maximum percentage effective analgesia (% MPE)” value [2] was 63.5% and the inhibition at 1 µM ([3]; read-out: δOR Combination rate (%)) was 11.7 ± 0.9%. For the same molecule, the inhibition at 1 µM ([4]; 0.5 h, read-out: μOR Combination rate (%)) was 41.1 ± 2.3%.
`COC(=O)c1ccsc1NC(=O)N1CCC(O)(c2cccc(OC)c2)C(CN(C)C)C1` (stereo not drawn) [FWBF18, Methyl 2-(3-((dimethylamino)methyl)-4-hydroxy-4-(3-methoxyphenyl)piperidine-1-carboxamide) thiophene-3-carboxylate hydrochloride] was tested, and the inhibition at 1 µM [1, 11] was 9.2 ± 3.1%, the “% MPE @ 10 mg/kg” value [2] was 22.76% and the inhibition at 1 µM [3, 12] was 16 ± 12.4%. It also gave an inhibition at 1 µM [4, 13] of 2.3%.
With `COc1cccc(C2(O)CCN(C(=O)Cn3cnnn3)CC2CN(C)C)c1.Cl` (stereo not drawn) [FWBE7, 1-(3-((Dimethylamino)methyl)-4-hydroxy-4-(3-methoxyphenyl)piperidin-1-yl)-2-(1H-tetrazol-1-yl)ethyl-1-one hydrochloride] the inhibition at 1 µM [1, 8] was 22.9 ± 0.6%, the “Maximum percentage effective analgesia (% MPE)” value [2] was 12.0% and the inhibition at 1 µM [3, 9] was 8.9 ± 2.4%. The inhibition at 1 µM [4, 10] was 0%.
For `COc1cccc(C2(O)CCN(S(=O)(=O)c3ccccc3)CC2CN(C)C)c1.Cl` (stereo not drawn) [FWBH16, 3-((Dimethylamino)methyl)-4-(3-methoxyphenyl)-1-(phenylsulfonyl)piperidin-4-ol hydrochloride], the inhibition at 1 µM [1, 5] was 32.6 ± 0.55%, the “% MPE (5 mg/kg)” value [2] was 100% and the inhibition at 1 µM [3, 6] was 40.5 ± 1.66%. The Ki ([4]; Table 2-1) was 87.7 ± 9.37 nM.
`COc1cccc(C2(O)CCN(S(=O)(=O)Cc3cccc(C(F)(F)F)c3)CC2CN(C)C)c1.Cl` (stereo not drawn) [FWBH10, 3-((Dimethylamino)methyl)-4-(3-methoxyphenyl)-1-((3-(trifluoromethyl)benzyl)sulfonyl) piperidin-4-ol hydrochloride] was tested, and the inhibition at 1 µM [1, 5] was 30.1 ± 0.7%, the “% MPE (5 mg/kg)” value [2] was 72.41% and the Ki ([3]; Table 2-1, read-out: δOR Ki) was 3650 ± 1250 nM. The Ki ([4]; Table 2-1) was 4.68 ± 0.12 nM.
In the case of `COc1cccc(C2(O)CCN(S(=O)(=O)C[C@]34CC[C@H](CC3=O)C4(C)C)CC2CN(C)C)c1` (stereo partly drawn) [FWBH25, (1S,4R)-1-(((3-((Dimethylamino)methyl)-4-hydroxy-4-(3-methoxyphenyl)piperidin-1-yl)sulfonyl)methyl)-7,7-dimethylbicyclo[2.2.1]heptan-2-one hydrochloride], the Ki ([1]; Table 2-1, read-out: κOR Ki) is reported as 54 ± 20.9 nM, the “% MPE (5 mg/kg)” value [2] is reported as 6.03% and the inhibition at 1 µM [3, 6] is reported as 14.3 ± 8.63%. It also gave a Ki ([4]; Table 2-1) of 50.8 ± 1.56 nM.
With `COc1cccc(C2(O)CCN(C(=O)Cc3ccc(Cl)c(Cl)c3)CC2CN(C)C)c1.Cl` (stereo not drawn) [FWBE17, 2-(3,4-Dichlorophenyl)-1-(3-((dimethylamino)methyl)-4-hydroxy-4-(3-methoxyphenyl)piperidin-1-yl)ethyl-1-one hydrochloride] the Ki ([1]; Table 5-1, read-out: κOR Ki) was 288 ± 12.8 nM, the “Maximum percentage effective analgesia (% MPE)” value [2] was 70.66% and the Ki ([3]; Table 5-1, read-out: δOR Ki) was 805 ± 173 nM. It also gave a Ki ([4]; Table 5-1) of 69.2 ± 0.4 nM.
With `COc1cccc(C2(O)CCN(S(=O)(=O)Cc3cccc(Cl)c3)CC2CN(C)C)c1.Cl` (stereo not drawn) [FWBH7, 1-((3-Chlorobenzyl)sulfonyl)-3-((dimethylamino)methyl)-4-(3-methoxyphenyl)piperidin-4-ol hydrochloride] the inhibition at 1 µM [1, 5] was 0%, the ED50 [2] was 1.58 mg/kg and the inhibition at 1 µM [3, 6] was 28.8 ± 0.04%. It also gave an inhibition at 1 µM [4, 7] of 21.9 ± 2.4%.
In the case of `COc1cccc(C2(O)CCN(C(=O)Cc3cccc(C(F)(F)F)c3)CC2CN(C)C)c1.Cl` (stereo not drawn) [FWBE4, 1-(3-((Dimethylamino)methyl)-4-hydroxy-4-(3-methoxyphenyl)piperidin-1-yl)-2-(3-(trifluoromethyl)phenyl)ethyl-1-one hydrochloride], the Ki ([1]; Table 5-1, read-out: κOR Ki) is reported as 3030 ± 150 nM, the “Maximum percentage effective analgesia (% MPE)” value [2] is reported as 69% and the Ki ([3]; Table 5-1, read-out: δOR Ki) is reported as over 10000 nM. The inhibition at 1 µM [4, 10] was 37.8 ± 2.9%.
`COc1cccc(C2(O)CCN(C(=O)Nc3ccc4ccccc4c3)CC2CN(C)C)c1` (stereo not drawn) [FWBF11, 3-((Dimethylamino)methyl)-4-hydroxy-4-(3-methoxyphenyl)-N-(naphthalen-2-yl)piperidine-1-carboxamide hydrochloride] was tested, and the inhibition at 1 µM [1, 11] was 3.9%, the “% MPE @ 10 mg/kg” value [2] was 4.41% and the inhibition at 1 µM [3, 12] was 0%. For the same molecule, the inhibition at 1 µM [4, 13] was 0.5%.
In the case of `COc1cccc(C2(O)CCN(C(=O)Cc3cccc([N+](=O)[O-])c3)CC2CN(C)C)c1.Cl` (stereo not drawn) [FWBE22, 1-(3-((Dimethylamino)methyl)-4-hydroxy-4-(3-methoxyphenyl)piperidin-1-yl)-2-(3-nitrophenyl) ethyl-1-one hydrochloride], the Ki ([1]; Table 5-1, read-out: κOR Ki) is reported as 1990 ± 146 nM, the “Maximum percentage effective analgesia (% MPE)” value [2] is reported as 72.88% and the Ki ([3]; Table 5-1, read-out: δOR Ki) is reported as over 10000 nM. It also gave a Ki ([4]; Table 5-1) of 85.6 ± 15.4 nM.
For `COc1cccc(C2(O)CCN(S(=O)(=O)CCc3ccccc3)CC2CN(C)C)c1.Cl` (stereo not drawn) [FWBH9, 3-((Dimethylamino)methyl)-4-(3-methoxyphenyl)-1-(phenethylsulfonyl)piperidin-4-ol hydrochloride], the inhibition at 1 µM [1, 5] was 8.41 ± 1.66%, the “% MPE (5 mg/kg)” value [2] was 100% and the inhibition at 1 µM [3, 6] was 0%. The Ki ([4]; Table 2-1) was 1.79 ± 2 nM.
For `COc1cccc(C2(O)CCC(N(C)S(=O)(=O)c3cccc(Cl)c3)CC2CN(C)C)c1.Cl` (stereo not drawn) [3-Chloro-N-(3-((dimethylamino)methyl)-4-hydroxy-4-(methoxyphenyl)cyclohexyl)-N-methylbenzenesulfonamide hydrochloride], the inhibition at 10 µM ([1]; read-out: κOR Binding rate (%)) was 66.6 ± 4.8%, the “Maximum percentage effective analgesic (% MPE)” value [2] was 20.2% and the inhibition at 10 µM ([3]; read-out: δOR Binding rate (%)) was 13.8 ± 3%. For the same molecule, the inhibition at 10 µM ([4]; read-out: μOR Binding rate (%)) was 90 ± 2%.
In the case of `COc1cccc(C2(O)CCN(C(=O)Nc3cc(Cl)c(Cl)c(Cl)c3)CC2CN(C)C)c1` (stereo not drawn) [FWBF6, 3-((Dimethylamino)methyl)-4-hydroxy-4-(3-methoxyphenyl)-N-(3,4,5-trichlorophenyl) piperidine-1-carboxamide hydrochloride], the inhibition at 1 µM [1, 11] is reported as 0%, the “% MPE @ 10 mg/kg” value [2] is reported as 4.54% and the inhibition at 1 µM [3, 12] is reported as 0%. It also gave an inhibition at 1 µM [4, 13] of 13.2 ± 8%.
